29 compounds from patent US8648103B2, “Nitrogen-containing aromatic heterocyclyl compound” (Daiichi Sankyo Company, Limited, priority 2008, dated 2014) can be followed below.

Molecules are shown by their SMILES. pIC50: −log10 of the molar value.

In the first experiment the test system is Human subcutaneous adipocytes. In words: Adipocyte lipolysis assay (suppression of isoproterenol-stimulated fatty acid release). The experiment is classed as cell-based. The conditions noted are these: Homo sapiens, Adipocyte; test compound concentration giving 50% fatty acid concentration reduction percentage in culture supernatant; 1 μM isoproterenol, 5 hours incubation; reduction by 100 μM nicotinic acid set at 100%. An excerpt:
The suppressive or promoting activity of a test compound on the lipolysis of neutral fat can be assayed according to an adipocyte lipolysis assay as a cell line assay. If a beta adrenoceptor is stimulated with isoproterenol or the like in adipocytes, lipolysis action in which neutral fat accumulated in the cells is decomposed into fatty acid and glycerol can be promoted, and as a result, the amount of such fatty acid or glycerol released out of the cells can be increased. When a test compound that suppresses lipolysis is added to adipocytes, lipolysis-promoting action by isoproterenol stimulation is reduced, and the concentration of fatty acid or glycerol in a medium is decreased. Accordingly, the suppressive activity of a test compound on lipolysis can be assayed by measuring the reduction percentage of the fatty acid concentration or glycerol concentration in a culture supernatant. Likewise, the promoting activity of a test compound on lipolysis can be assayed by measuring the increase percentage of the fatty acid concentration or glycerol concentration in a medium.
• (1) Human subcutaneous adipocytes disseminated onto a 96 well (Dainippon Sumitomo Pharma Co., Ltd.: F-SA-1096) • (2) Adipocyte Maintenance Medium (Dainippon Sumitomo Pharma Co., Ltd.: AM 1) • (3) Lipolysis assay buffer [137 mM NaCl, 5 mM KCl, 4.2 mM NaHCO3, 1.3 mM CaCl2, 0.5 mM KH2PO4, 0.5 mM MgCl2, 0.5 mM MgSO4, 5 mM Glucose, 20 mM Hepes (pH 7.4), 1% BSA, 1 μM Isoproterenol] • (4) NEFA-C Test Wako (Wako Pure Chemical Industries, Ltd.) Preparation of Screening Materials
In this operation, the actual concentration of the test compound in the buffer was 1/1000 of the above-described concentration.
The above-described subcutaneous adipocytes were cultured in 200 μL of an Adipocyte Maintenance Medium in each well for 7 days. During this culturing operation, the medium was exchanged with a fresh one every 3 days. The medium was exchanged by discarding 100 μL of the medium in each well and then adding 100 μL of a fresh Adipocyte Maintenance Medium to the well. Thereafter, the adipocytes were washed with a Lipolysis assay buffer. Subsequently, 50 μL of a Lipolysis assay buffer that contained the above-described test compound was added to each well, and it was then incubated for 5 hours. In order to obtain the measurement value of the test compound in each concentration, 5 wells on a 96-well plate were used with respect to each concentration. As a positive control of a compound having lipolysis suppressive activity, nicotinic acid was used with reference to a previous report [Green A et. al., J. Biol. Chem., 1992, 267(5), 3223-9].
40 μL of a culture supernatant was extracted from each well, and the fatty acid concentration in the supernatant was then measured. Such fatty acid concentration was measured as follows, using the above-described NEFA-C Test Wako. 80 μL of liquid A included in the kit was added to 40 μL of the culture supernatant extracted from each well, and the obtained mixture was then incubated at 37° C. for 10 minutes. Thereafter, 160 μL of liquid B was added, and the obtained mixture was further incubated at 37° C. for 10 minutes. Thereafter, the absorbance at a wavelength of 550 nm was measured. At the same time, a standard fatty acid solution included in the kit was diluted to prepare a dilution series having a volume of 40 μL. According to the same operations as described above, liquid A and liquid B were added, and the absorbance was then measured. In accordance with instructions included with the kit, a calibration curve was prepared. Based on the thus prepared calibration curve, the fatty acid concentration in the culture supernatant was calculated. The reduction percentage of the fatty acid concentration was calculated with the following formula, setting the reduction percentage obtained by addition of 100 μM (final concentration) of nicotinic acid at 100%. […]
For `CCn1cc(NC(=O)C(F)Cc2cnc(-c3ccc(O)cc3)s2)c(C(=O)O)c1` (racemic) [Example 22, 4-{3-[2-(4-Hydroxyphenyl)thiazol-5-yl]-2-fluoropropanoyl}amino-1-ethylpyrrole-3-carboxylic acid], the negative-log IC50 (pIC50) is 7.54.
Same read-out and setting: then `Cn1cc(NC(=O)CCc2ccc(-c3ccc(O)cc3)cc2)c(C(=O)O)c1` [Example 1, 4-{3-[4-(4-Hydroxyphenyl)phenyl]propanoyl}amino-1-methylpyrrole-3-carboxylic acid], with 5.96; and `Cn1cc(NC(=O)CCc2ccc3c(Cl)c(O)ccc3c2)c(C(=O)O)c1` [Example 2, 4-[3-(5-Chloro-6-hydroxy-2-naphthyl)propanoyl]amino-1-methylpyrrole-3-carboxylic acid], with 6.27; and `Cn1cc(NC(=O)CCc2nc(-c3ccc(O)cn3)no2)c(C(=O)O)c1` [Example 3, 4-{3-[(5-Hydroxypyridin-2-yl)-1,2,4-oxadiazol-5-yl]propanoyl}amino-1-methylpyrrole-3-carboxylic acid], with 8.15.
Regarding `Cn1cc(NC(=O)CCc2cnc(-c3ccc(O)cc3)o2)c(C(=O)O)c1` [Example 4, 4-{3-[2-(4-Hydroxyphenyl)oxazol-5-yl]propanoyl}amino-1-methylpyrrole-3-carboxylic acid], the negative-log IC50 (pIC50) was 6.63.
`Cn1cc(NC(=O)CCc2cnc(-c3ccccc3)s2)c(C(=O)O)c1` [Example 5, 4-{3-(2-Phenylthiazol-5-yl)propanoyl}amino-1-methylpyrrole-3-carboxylic acid] had a negative logarithm of the IC50 (pIC50) of 6.18.
Same read-out and setting: then `Cn1cc(NC(=O)CCc2cnc(-c3ccc(O)cc3)s2)c(C(=O)O)c1` [Example 6, 4-{3-[2-(4-Hydroxyphenyl)thiazol-5-yl]propanoyl}amino-1-methylpyrrole-3-carboxylic acid], with 7.62; and `Cn1cc(NC(=O)CCc2sc(-c3ccccc3)nc2Cl)c(C(=O)O)c1` [Example 7, 4-[3-(4-Chloro-2-phenylthiazol-5-yl)propanoyl]amino-1-methylpyrrole-3-carboxylic acid], with 5.82; and `Cn1cc(NC(=O)CCc2sc(-c3ccc(O)cc3)nc2Cl)c(C(=O)O)c1` [Example 8, 4-{3-[4-Chloro-2-(4-hydroxyphenyl)thiazol-5-yl]propanoyl}amino-1-methylpyrrole-3-carboxylic acid], with 7.12.
Regarding `Cn1cc(NC(=O)CCc2cnc(-c3ccc(O)c(F)c3)s2)c(C(=O)O)c1` [Example 9, 4-{3-[2-(4-Hydroxy-3-fluorophenyl)thiazol-5-yl]propanoyl}amino-1-methylpyrrole-3-carboxylic acid], the pIC50 was 6.90.
On the same count and under the same terms, under `Cn1cc(NC(=O)CCc2cnc(-c3ccc(O)c(Cl)c3)s2)c(C(=O)O)c1` [Example 10, 4-{3-[2-(3-Chloro-4-hydroxyphenyl)thiazol-5-yl]propanoyl}amino-1-methylpyrrole-3-carboxylic acid] stands 6.82; under `CCCCn1cc(NC(=O)CCc2cnc(-c3ccc(O)cn3)o2)c(C(=O)O)c1` [Example 11, 4-{3-[2-(5-Hydroxypyridin-2-yl)oxazol-5-yl]propanoyl}amino-1-butylpyrrole-3-carboxylic acid], 7.06.
Compound `CCn1cc(NC(=O)CCc2nc(-c3ccc(O)cc3)no2)c(C(=O)O)c1` [Example 12, 4-{3-[3-(4-Hydroxyphenyl)-1,2,4-oxadiazol-5-yl]propanoyl}amino-1-ethylpyrrole-3-carboxylic acid] showed a pIC50 of 7.54.
The compound `CCn1cc(NC(=O)CCc2cnc(-c3ccc(O)cc3)s2)c(C(=O)O)c1` [Example 13, 4-{3-[2-(4-Hydroxyphenyl)thiazol-5-yl]propanoyl}amino-1-ethylpyrrole-3-carboxylic acid] had a negative-log IC50 (pIC50) of 7.40. The pIC50 values of the last two compounds are within 0.2 log units of each other.
On the same count and under the same terms, under `O=C(CCc1cnc(-c2ccccc2)s1)Nc1cn(CCF)cc1C(=O)O` [Example 14, 4-[3-(2-Phenylthiazol-5-yl)propanoyl]amino-1-(2-fluoroethyl)pyrrole-3-carboxylic acid] stands 6.59; under `O=C(CCc1nc(-c2ccc(O)cn2)no1)Nc1cn(Cc2cc(F)cc(F)c2)cc1C(=O)O` [Example 15, 4-{3-[(5-Hydroxypyridin-2-yl)-1,2,4-oxadiazol-5-yl]propanoyl}amino-1-(3,5-difluorobenzyl)pyrrole-3-carboxylic acid], 8.70.
Still for that read-out and setting: under `O=C(CCc1nc(-c2ccc(O)cc2)no1)Nc1cn(Cc2cc(F)cc(F)c2)cc1C(=O)O` [Example 16, 4-{3-[(4-Hydroxyphenyl)-1,2,4-oxadiazol-5-yl]propanoyl}amino-1-(3,5-difluorobenzyl)pyrrole-3-carboxylic acid] stands 7.54; under `CCCCn1cc(C(=O)O)c(NC(=O)CCc2nc(-c3ccc(O)cn3)no2)n1` [Example 17, 5-{3-[(5-Hydroxypyridin-2-yl)-1,2,4-oxadiazol-5-yl]propanoyl}amino-2-butylpyrazol-4-carboxylic acid], 7.31; under `COCCCn1cc(NC(=O)CCc2cnc(-c3ccc(O)cc3)s2)c(C(=O)O)c1` [Example 18, 4-{3-[2-(4-Hydroxyphenyl)thiazol-5-yl]propanoyl}amino-1-(3-methoxypropyl)pyrrole-3-carboxylic acid], 8.05.
In turn, `CCn1cc(NC(=O)CCc2cnc(-c3ccc(O)cc3C)s2)c(C(=O)O)c1` [Example 19, 4-{3-[2-(4-Hydroxy-2-methylphenyl)thiazol-5-yl]propanoyl}amino-1-ethylpyrrole-3-carboxylic acid] showed a pIC50 of 7.03. Compared with the last compound, the pIC50 is 1.02 log units lower.
As for `CCn1cc(NC(=O)CCc2sc(-c3ccc(O)cc3O)nc2Cl)c(C(=O)O)c1` [Example 21, 4-{3-[4-Chloro-2-(2,4-dihydroxyphenyl)thiazol-5-yl]propanoyl}amino-1-ethylpyrrole-3-carboxylic acid], the negative-log IC50 (pIC50) is 7.39. This pIC50 is 0.36 log units higher than that of the compound before.
`CCn1cc(NC(=O)CCn2cnc(-c3ccccc3)c2C)c(C(=O)O)c1` [Example 24, 4-{3-(4-Phenyl-5-methylimidazol-1-yl)propanoyl}amino-1-ethylpyrrole-3-carboxylic acid]: the negative logarithm of the IC50 (pIC50) was 7.70.
`CCn1cc(NC(=O)C(F)Cc2cnn(-c3ccccc3)c2C)c(C(=O)O)c1` (centres unmarked) [Example 26, 4-[2-Fluoro-3-(5-methyl-1-phenylpyrazol-5-yl)propanoyl]amino-1-ethylpyrrole-3-carboxylic acid] gave a negative logarithm of the IC50 (pIC50) of 8.00.
Still for that read-out and setting: then `CCc1c(CC(F)C(=O)Nc2cn(CC)cc2C(=O)O)cnn1-c1ccccc1` (centres unmarked) [Example 27], with 7.44.
Still for that read-out and setting: under `CCc1c(-c2ccccc2)ncn1CCC(=O)Nc1cn(CC)cc1C(=O)O` [Example 28, 4-{3-(4-Phenyl-5-ethylimidazol-1-yl)propanoyl}amino-1-ethylpyrrole-3-carboxylic acid] stands 7.72; under `CCn1cc(NC(=O)CCc2cnn(-c3ccccc3)c2C2CC2)c(C(=O)O)c1` [Example 29], 7.38; under `CCn1cc(NC(=O)C(F)Cc2cnn(-c3ccccc3)c2C2CC2)c(C(=O)O)c1` (centres unmarked) [Example 30], 7.38.

Staying with this experiment, now noted: test compound concentration giving 50% fatty acid concentration reduction percentage in culture supernatant; 1 μM isoproterenol, 5 hours incubation; reduction by 100 μM nicotinic acid set at 100%.
`CCn1cc(NC(=O)C(F)Cc2cnc(-c3ccc(O)cc3)s2)c(C(=O)O)c1` (single isomer, unassigned; (+)) [Example 23b, (+)-4-{3-[2-(4-Hydroxyphenyl)thiazol-5-yl]-2-fluoropropanoyl}amino-1-ethylpyrrole-3-carboxylic acid]: the negative-log IC50 (pIC50) is 6.99.
Compound `CCn1cc(NC(=O)C(F)Cc2cnc(-c3ccc(O)cc3)s2)c(C(=O)O)c1` (single isomer, unassigned; (-)) [Example 23a, (−)-4-{3-[2-(4-Hydroxyphenyl)thiazol-5-yl]-2-fluoropropanoyl}amino-1-ethylpyrrole-3-carboxylic acid] showed a pIC50 of 7.82.

One may read the pIC50 as the negative decadic logarithm of the IC50, by convention in mol/L. Read a low pIC50 as a large IC50.
